Reference: PubChem BioAssay AID1963966 (Molecular Pharmacology Branch, DTP, NCI, 2024)

System: 935938-334-R-J1-PDC spheroids with HUVEC/MSC, viability
Assay: Anticancer human tumor 935938-334-R-J1-PDC patient-derived small intestine adenocarcinoma cell line growth inhibition [PI3K]
Conditions: for viability, T/C: stronger effect = lower value
In short: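 Complex 3D spheroids (cancer cells + endothelial HUVEC + mesenchymal stem cells); drug pairs of targeted agent x inavolisib/alpelisib/duvelisib/copanlisib; half-log series from ~Cmax, max 10 microM if Cmax unknown; endpoint viability.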

[1] = curve of first compound, second compound 0.0316 µM
[2] = curve of first compound, second compound 0.1 µM
[3] = curve of first compound, second compound 0.316 µM
[4] = curve of first compound, second compound 1 µM
[5] = second compound 0.0316 µM, first compound 0.0316 µM
[6] = second compound 0.0316 µM, first compound 0.1 µM
[7] = second compound 0.0316 µM, first compound 0.316 µM
[8] = second compound 0.0316 µM, first compound 1 µM
[9] = second compound 0.0316 µM, first compound 3.16 µM
[10] = second compound 0.0316 µM, first compound 10 µM
[11] = second compound 0.1 µM, first compound 0.0316 µM
[12] = second compound 0.1 µM, first compound 0.1 µM
[13] = second compound 0.1 µM, first compound 0.316 µM
[14] = second compound 0.1 µM, first compound 1 µM
[15] = second compound 0.1 µM, first compound 3.16 µM
[16] = second compound 0.1 µM, first compound 10 µM
[17] = second compound 0.316 µM, first compound 0.0316 µM
[18] = second compound 0.316 µM, first compound 0.1 µM
[19] = second compound 0.316 µM, first compound 0.316 µM
[20] = second compound 0.316 µM, first compound 1 µM
[21] = second compound 0.316 µM, first compound 3.16 µM
[22] = second compound 0.316 µM, first compound 10 µM
[23] = second compound 1 µM, first compound 0.0316 µM
[24] = second compound 1 µM, first compound 0.1 µM
[25] = second compound 1 µM, first compound 0.316 µM
[26] = second compound 1 µM, first compound 1 µM
[27] = second compound 1 µM, first compound 3.16 µM
[28] = second compound 1 µM, first compound 10 µM
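Further: compound exposure lasted seven days before viability was read.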
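Wherever viability, T/C is given: percent of vehicle DMSO treated spheroid viability so 100% = untreated.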

CC(C)NCC(C(=O)N1CCN(c2ncnc3c2C(C)CC3O)CC1)c1ccc(Cl)cc1 (stereo not given) + CC(Nc1ccc2c(c1)OCCn1cc(N3C(=O)OCC3C(F)F)nc1-2)C(N)=O
IC50 (curve of first compound, second compound 0.00316 µM): 1690 nM
IC50 (curve of first compound, second compound 0.01 µM): 3320 nM
IC50 [1]: 811 nM
IC50 [2]: 651 nM
IC50 [3]: 724 nM
IC50 [4]: 328 nM
viability, T/C (second compound 0.00316 µM, first compound 0.0316 µM): 76.6%
viability, T/C (second compound 0.00316 µM, first compound 0.1 µM): 96.7%
viability, T/C (second compound 0.00316 µM, first compound 0.316 µM): 77.9%
viability, T/C (second compound 0.00316 µM, first compound 1 µM): 58%
viability, T/C (second compound 0.00316 µM, first compound 3.16 µM): 41.5%
viability, T/C (second compound 0.00316 µM, first compound 10 µM): 36.1%
viability, T/C (second compound 0.01 µM, first compound 0.0316 µM): 47.5%
viability, T/C (second compound 0.01 µM, first compound 0.1 µM): 75.7%
viability, T/C (second compound 0.01 µM, first compound 0.316 µM): 85%
viability, T/C (second compound 0.01 µM, first compound 1 µM): 65.4%
viability, T/C (second compound 0.01 µM, first compound 3.16 µM): 51.1%
viability, T/C (second compound 0.01 µM, first compound 10 µM): 28.6%
viability, T/C [5]: 53.1%
viability, T/C [6]: 76.5%
viability, T/C [7]: 65.5%
viability, T/C [8]: 46.5%
viability, T/C [9]: 35.3%
viability, T/C [10]: 30%
viability, T/C [11]: 94.9%
viability, T/C [12]: 84.1%
viability, T/C [13]: 56.1%
viability, T/C [14]: 44%
viability, T/C [15]: 44%
viability, T/C [16]: 28.3%
viability, T/C [17]: 55.5%
viability, T/C [18]: 75.7%
viability, T/C [19]: 68.3%
viability, T/C [20]: 43.6%
viability, T/C [21]: 23.4%
viability, T/C [22]: 24.8%
viability, T/C [23]: 35.1%
viability, T/C [24]: 52.9%
viability, T/C [25]: 63.5%
viability, T/C [26]: 34.1%
viability, T/C [27]: 19.8%
viability, T/C [28]: 28.6%

CNC(=O)c1ccc(N2C(=S)N(c3ccc(C#N)c(C(F)(F)F)c3)C(=O)C2(C)C)cc1F + CC(Nc1ncnc2nc[nH]c12)c1cc2cccc(Cl)c2c(=O)n1-c1ccccc1
IC50 [1]: > 10000 nM
IC50 [2]: > 10000 nM
IC50 [3]: > 10000 nM
IC50 [4]: > 10000 nM
IC50 (curve of first compound, second compound 3.16 µM): > 10000 nM
IC50 (curve of first compound, second compound 10 µM): > 10000 nM
viability, T/C [5]: 102%
viability, T/C [6]: 94.8%
viability, T/C [7]: 136%
viability, T/C [8]: 85.2%
viability, T/C [9]: 78.2%
viability, T/C [10]: 133%
viability, T/C [11]: 98.1%
viability, T/C [12]: 84.4%
viability, T/C [13]: 102%
viability, T/C [14]: 90%
viability, T/C [15]: 81.3%
viability, T/C [16]: 84.7%
viability, T/C [17]: 100%
viability, T/C [18]: 72.2%
viability, T/C [19]: 95.3%
viability, T/C [20]: 83.6%
viability, T/C [21]: 95%
viability, T/C [22]: 65.4%
viability, T/C [23]: 97.4%
viability, T/C [24]: 83.9%
viability, T/C [25]: 70.8%
viability, T/C [26]: 69.7%
viability, T/C [27]: 96%
viability, T/C [28]: 73.5%
viability, T/C (second compound 3.16 µM, first compound 0.0316 µM): 72.8%
viability, T/C (second compound 3.16 µM, first compound 0.1 µM): 91.4%
viability, T/C (second compound 3.16 µM, first compound 0.316 µM): 103%
viability, T/C (second compound 3.16 µM, first compound 1 µM): 99.9%
viability, T/C (second compound 3.16 µM, first compound 3.16 µM): 61%
viability, T/C (second compound 3.16 µM, first compound 10 µM): 81.8%
viability, T/C (second compound 10 µM, first compound 0.0316 µM): 80.8%
viability, T/C (second compound 10 µM, first compound 0.1 µM): 92%
viability, T/C (second compound 10 µM, first compound 0.316 µM): 72.3%
viability, T/C (second compound 10 µM, first compound 1 µM): 71.6%
viability, T/C (second compound 10 µM, first compound 3.16 µM): 75.3%
viability, T/C (second compound 10 µM, first compound 10 µM): 63.9%

Cn1cnc2c(F)c(Nc3ccc(Br)cc3Cl)c(C(=O)NOCCO)cc21
viability, T/C (compound 0.03 µM): 59% [middle of 4 runs]
viability, T/C (compound 0.0949 µM): 48.3% [middle of 4 runs]
viability, T/C (compound 0.3 µM): 33.4% [middle of 4 runs]
viability, T/C (compound 0.949 µM): 27.6% [middle of 4 runs]
viability, T/C (compound 3 µM): 20.4% [middle of 4 runs]
IC50 (curve of compound): 55.5 nM [middle of 4 runs]
